Test results: US12036312B2, “Non-aqueous topical compositions comprising a halogenated salicylanilide” (priority 2016, dated 2024)
In brackets after ≈: the same amount, converted by molar mass. Several values for one entry are separate records, joined by “and”; a condition that tells them apart may be missing. Identical values can stand only once. Each block holds one compound with its values, some of them ahead of it.

Columns and labels:
[1] = test system: MRSA 01, MRSA 15 (fusidic acid-resistant), MRSA 16 (mupirocin-resistant); assay: Mutational frequency evaluation (spontaneous single-step mutations), Example 1; type: cell-based, Staphylococcus aureus; settings: at MIC×1 (Example 1)
S. aureus [2] = assay: MIC assay according to CLSI criteria, Example 2, S. aureus strains; type: cell-based, Staphylococcus aureus; settings: Staphylococcus aureus, read-out: MIC
Text: Chosen for its relevance regarding bacterial skin infections, the methicillin-resistant S. aureus (MRSA) 01 strain was used as the primary test microorganism. This strain is a community-acquired MRSA clinical isolate of USA 300 type, from a skin abscess.
Two-hundred-four other MRSA and methicillin-sensitive S. aureus strains, and 4 Streptococcus pyogenes strains, were also included in the study. These covered fusidic acid- and mupirocin-resistant strains, these two types of resistance being of clinical relevance.
Strains were conserved in Luria Bertani (LB) Broth (S. aureus) or Brain Heart Infusion (BHI) (S. pyogenes) supplemented with glycerol 15% (v/v) at −80° C., and reactivated by isolation on LB (S. aureus) or BHI (S. pyogenes) agar plates. Strains were cultivated in Mueller Hinton (MH) Broth-cation adjusted (S. aureus) or BHI (S. pyogenes). All strains were cultivated aerobically (microaerobically for S. pyogenes strains) at 37° C.
(§1) Bacterial cultures were stopped in their exponential growth phase and plates were inoculated with the approximate concentration of 5×10^5 cells per well. Plates were incubated at 37° C. for 18 hours (S. aureus) or 24 hours (S. pyogenes). Optical density at a wavelength of 600 nm was measured at the end of the incubation time.

[3] = published literature values; cited from earlier work
S. aureus [4] = assay: Minimum inhibitory concentration (MIC) assay, Example 1, S. aureus strains; type: cell-based; settings: Staphylococcus aureus, MRSA, read-out: Mic100 S. aureus
Text: The methicillin-resistant S. aureus (MRSA) 01 strain was used as the primary test microorganism as a representative bacteria commonly found in skin infections. This strain is a community-acquired MRSA clinical isolate of USA 300 type, from a skin abscess.
(§2) Twenty-one other MRSA and methicillin-sensitive S. aureus strains, and 4 Streptococcus pyogenes strains, were also included in the study (Table 2). These covered fusidic acid- and mupirocin-resistant strains, these two types of resistance being of clinical relevance.
(§3) Strains were conserved in Luria Bertani (LB) Broth (S. aureus) or Brain Heart Infusion (BHI) (S. pyogenes) supplemented with glycerol 15% (v/v) at −80° C., and reactivated by isolation on LB (S. aureus) or BHI (S. pyogenes) agar plates. Strains were cultivated in Mueller Hinton (MH) Broth-cation adjusted (S. aureus) supplemented with lysed horse blood 2.5% (v/v) (S. pyogenes). All strains were cultivated at 37° C., aerobically for S. aureus strains.
as §1, with “10^3” for “5×10^5”, “time. […] Experiments were performed at least as triplicate biological replicates with all strains.” for “time.”

S. pyogenes = assay: Minimum inhibitory concentration (MIC) assay, Example 1, S. pyogenes strains; type: cell-based; settings: Streptococcus pyogenes, read-out: Mic100 S. pyogenes
Method: as §2, §3
as §1, with “10^3” for “5×10^5”, “time. […] Experiments were performed at least as triplicate biological replicates with all strains.” for “time.”

SMILES: Cc1cc(C(C#N)c2ccc(Cl)cc2)c(Cl)cc1NC(=O)c1cc(I)cc(I)c1O (stereo not drawn) [Closantel, closantel]
mutational frequency [1]: 2×10^−8

MIC (S. aureus [2]; MRSA, strain MRSA 01): 0.25 µg/mL (≈ 0.499 µM)
MIC (S. aureus [2]; MRSA, strain MRSA 02): 0.25 µg/mL (≈ 0.499 µM)
MIC (S. aureus [2]; MRSA, strain MRSA 03): 0.25 µg/mL (≈ 0.499 µM)
MIC (S. aureus [2]; MRSA, strain MRSA 04): 0.25 µg/mL (≈ 0.499 µM)
MIC (S. aureus [2]; MRSA, strain MRSA 05): 0.125 µg/mL (≈ 0.25 µM)
MIC (S. aureus [2]; MRSA, strain MRSA 06): 0.25 µg/mL (≈ 0.499 µM)
MIC (S. aureus [2]; MRSA, strain MRSA 07): 0.25 µg/mL (≈ 0.499 µM)
MIC (S. aureus [2]; MRSA, strain MRSA 09): 0.25 µg/mL (≈ 0.499 µM)
MIC (S. aureus [2]; MRSA, strain MRSA 10): 0.25 µg/mL (≈ 0.499 µM)
MIC (S. aureus [2]; MRSA, strain MRSA 11): 0.5 µg/mL (≈ 0.999 µM)
MIC (S. aureus [2]; MRSA, strain MRSA 12): 0.125 µg/mL (≈ 0.25 µM)
MIC (S. aureus [2]; MRSA, strain MRSA 13): 0.25 µg/mL (≈ 0.499 µM)
MIC (S. aureus [2]; MRSA, strain MRSA 14): 0.125 µg/mL (≈ 0.25 µM)
MIC (S. aureus [2]; MRSA, strain MRSA 15): 0.25 µg/mL (≈ 0.499 µM)
MIC (S. aureus [2]; MRSA, strain MRSA 18): 0.125 µg/mL (≈ 0.25 µM)
MIC (S. aureus [2]; MRSA, strain MRSA 19): 0.25 µg/mL (≈ 0.499 µM)
MIC (S. aureus [2]; MRSA, strain MRSA 20): 0.25 µg/mL (≈ 0.499 µM)
MIC (S. aureus [2]; MRSA, strain MRSA 22): 0.25 µg/mL (≈ 0.499 µM)
MIC (S. aureus [2]; MRSA, strain MRSA 23): 0.25 µg/mL (≈ 0.499 µM)
MIC (S. aureus [2]; MRSA, strain MRSA 24): 0.25 µg/mL (≈ 0.499 µM)
MIC (S. aureus [2]; MRSA, strain MRSA 25): 0.25 µg/mL (≈ 0.499 µM)
MIC (S. aureus [2]; MRSA, strain MRSA 26): 0.5 µg/mL (≈ 0.999 µM)
MIC (S. aureus [2]; MRSA, strain MRSA 27): 0.25 µg/mL (≈ 0.499 µM)
MIC (S. aureus [2]; MRSA, strain MRSA 28): 0.5 µg/mL (≈ 0.999 µM)
MIC (S. aureus [2]; MRSA, strain MRSA 29): 0.25 µg/mL (≈ 0.499 µM)
MIC (S. aureus [2]; MRSA, strain MRSA 31): 0.25 µg/mL (≈ 0.499 µM)
MIC (S. aureus [2]; MRSA, strain MRSA 32): 0.25 µg/mL (≈ 0.499 µM)
MIC (S. aureus [2]; MRSA, strain MRSA 33): 0.25 µg/mL (≈ 0.499 µM)
MIC (S. aureus [2]; MRSA, strain MRSA 34): 0.25 µg/mL (≈ 0.499 µM)
MIC (S. aureus [2]; MRSA, strain MRSA 35): 0.5 µg/mL (≈ 0.999 µM)
MIC (S. aureus [2]; MRSA, strain MRSA 36): 0.25 µg/mL (≈ 0.499 µM)
MIC (S. aureus [2]; MRSA, strain MRSA 37): 0.25 µg/mL (≈ 0.499 µM)
MIC (S. aureus [2]; MRSA, strain MRSA 39): 0.25 µg/mL (≈ 0.499 µM)
MIC (S. aureus [2]; MRSA, strain MRSA 40): 0.25 µg/mL (≈ 0.499 µM)
MIC (S. aureus [2]; MRSA, strain MRSA 75): 0.5 µg/mL (≈ 0.999 µM)
MIC (S. aureus [2]; MRSA, strain MRSA 85): 0.25 µg/mL (≈ 0.499 µM)
MIC (S. aureus [2]; MRSA, strain MRSA 86): 0.25 µg/mL (≈ 0.499 µM)
MIC (S. aureus [2]; MRSA, strain MRSA 87): 0.25 µg/mL (≈ 0.499 µM)
MIC (S. aureus [2]; MRSA, strain MRSA 88): 0.25 µg/mL (≈ 0.499 µM)
MIC (S. aureus [2]; MRSA, strain MRSA 89): 0.25 µg/mL (≈ 0.499 µM)
MIC (S. aureus [2]; MRSA, strain MRSA 90): 0.25 µg/mL (≈ 0.499 µM)
MIC (S. aureus [2]; MRSA, strain MRSA 91): 0.25 µg/mL (≈ 0.499 µM)
MIC (S. aureus [2]; MRSA, strain MRSA 92): 0.25 µg/mL (≈ 0.499 µM)
MIC (S. aureus [2]; MRSA, strain MRSA 93): 0.25 µg/mL (≈ 0.499 µM)
MIC (S. aureus [2]; MRSA, strain MRSA 94): 0.25 µg/mL (≈ 0.499 µM)
MIC (S. aureus [2]; MRSA, strain MRSA 95): 0.25 µg/mL (≈ 0.499 µM)
MIC (S. aureus [2]; MRSA, strain MRSA 96): 0.125 µg/mL (≈ 0.25 µM)
MIC (S. aureus [2]; MRSA, strain MRSA 97): 0.25 µg/mL (≈ 0.499 µM)
MIC (S. aureus [2]; MRSA, strain MRSA 98): 0.5 µg/mL (≈ 0.999 µM)
MIC (S. aureus [2]; MRSA, strain MRSA 99): 0.5 µg/mL (≈ 0.999 µM)
MIC (S. aureus [2]; MRSA, strain MRSA 100): 0.5 µg/mL (≈ 0.999 µM)
MIC (S. aureus [2]; MRSA, strain MRSA 101): 0.25 µg/mL (≈ 0.499 µM)
MIC (S. aureus [2]; MRSA, strain MRSA 102): 0.25 µg/mL (≈ 0.499 µM)
MIC (S. aureus [2]; MRSA, strain MRSA 103): 0.25 µg/mL (≈ 0.499 µM)
MIC (S. aureus [2]; MRSA, strain MRSA 104): 0.25 µg/mL (≈ 0.499 µM)
MIC (S. aureus [2]; MRSA, strain MRSA 105): 0.25 µg/mL (≈ 0.499 µM)
MIC (S. aureus [2]; MRSA, strain MRSA 106): 0.25 µg/mL (≈ 0.499 µM)
MIC (S. aureus [2]; MRSA, strain MRSA 107): 0.25 µg/mL (≈ 0.499 µM)
MIC (S. aureus [2]; MRSA, strain MRSA 108): 0.25 µg/mL (≈ 0.499 µM)
MIC (S. aureus [2]; MRSA, strain MRSA 109): 0.25 µg/mL (≈ 0.499 µM)
MIC (S. aureus [2]; MRSA, strain MRSA 110): 0.125 µg/mL (≈ 0.25 µM)
MIC (S. aureus [2]; MRSA, strain MRSA 111): 0.25 µg/mL (≈ 0.499 µM)
MIC (S. aureus [2]; MRSA, strain MRSA 112): 0.25 µg/mL (≈ 0.499 µM)
MIC (S. aureus [2]; MRSA, strain MRSA 113): 0.25 µg/mL (≈ 0.499 µM)
MIC (S. aureus [2]; MSSA, strain MSSA 01): 0.125 µg/mL (≈ 0.25 µM)
MIC (S. aureus [2]; MSSA, strain MSSA 02): 0.125 µg/mL (≈ 0.25 µM)
MIC (S. aureus [2]; NEWMAN, strain Newman): 0.25 µg/mL (≈ 0.499 µM)
SMILES: C/C(=C\C(=O)OCCCCCCCCC(=O)O)C[C@@H]1OC[C@H](C[C@@H]2O[C@H]2[C@@H](C)[C@H](C)O)[C@@H](O)[C@H]1O [Mupirocin, mupirocin]

SMILES: O=C(Nc1cc(Cl)cc(Cl)c1O)c1c(O)c(Cl)cc(Cl)c1Cl [Oxyclozanide, oxyclozanide]
LD50 rats p.o [3]: 980 to 3500 mg/kg

SMILES: O=C(Nc1ccc(Oc2ccc(Cl)cc2)c(Cl)c1)c1cc(I)cc(I)c1O [Rafoxanide, rafoxanide]
MIC (S. aureus [4]): 0.8 µg/mL and 1.25 µM
MIC (S. pyogenes): 6.4 µg/mL and 10 µM
mutational frequency [1]: 5×10^−9
